Reference: ChEMBL document CHEMBL1147052, “Innate immunity and transcription of MGAT-III and Toll-like receptors in Alzheimer's disease patients are improved by bisdemethoxycurcumin” (Proc Natl Acad Sci U S A, 2007)
Calls of active or inactive are those of the source.

Tests used:
Format in all cases: functional, cell-based
Conditions in all cases: Homo sapiens
PBMC [1] = assay: Increase in TLR3 protein expression in PBMC from Alzheimer's disease patient at 0.1 uM by flow cytometry
PBMC [2] = assay: Upregulation of TLR transcription in PBMC from Alzheimer's disease patient
Macrophage = assay: Induction of amyloid beta phagocytosis in macrophages from Alzheimer's disease patient at 0.1 uM
PBMC [3] = assay: Increase in TLR2 protein expression in PBMC from Alzheimer's disease patient at 0.1 uM by flow cytometry
PBMC [4] = assay: Upregulation of MGAT3 transcription in PBMC from Alzheimer's disease patient
PBMC [5] = assay: Increase in TLR4 protein expression in PBMC from Alzheimer's disease patient at 0.1 uM by flow cytometry

Measured: Activity

O=C(/C=C/c1ccc(O)cc1)CC(=O)/C=C/c1ccc(O)cc1
active: all assays above
